Counter-ions that a name gives are not always drawn. Each block holds one compound with its values, some of them ahead of it.
Assays:
[1] = Pharmacokinetic parameters for single and multiple oral doses of nirogacestat dihydrobromide; assay type: in vivo
Source text: The pharmacokinetic parameters for single and multiple oral doses of nirogacestat dihydrobromide (PF-03084014) are provided in Table 1 below.

[2] = test system: progressing desmoid tumors; conditions: Phase 2 study, participants with progressing desmoid tumors; cited from earlier work
[3] = Cohort 1: 150 mg, 1 × 150 mg, APERIOD 2, EXDOSE 150, N 10, Geometric Mean
[4] = Cohort 1: 150 mg, 1 × 150 mg, APERIOD 2, EXDOSE 150, N 10, Max
[5] = Cohort 1: 150 mg, 1 × 150 mg, APERIOD 2, EXDOSE 150, N 10, Median
[6] = Cohort 1: 150 mg, 1 × 150 mg, APERIOD 2, EXDOSE 150, N 10, Min
[7] = Cohort 1: 150 mg, 3 × 50 mg, APERIOD 1, EXDOSE 150, N 10, Max
[8] = Cohort 1: 150 mg, 3 × 50 mg, APERIOD 1, EXDOSE 150, N 10, Min
[9] = Cohort 2: 100 mg, APERIOD 1, EXDOSE 100, N 8, Geometric Mean
[10] = Cohort 2: 100 mg, APERIOD 1, EXDOSE 100, N 8, Max
[11] = Cohort 2: 100 mg, APERIOD 1, EXDOSE 100, N 8, Median
[12] = Cohort 2: 100 mg, APERIOD 1, EXDOSE 100, N 8, Min
[13] = Cohort 3: 50 mg, APERIOD 1, EXDOSE 50.0, N 8, Max
[14] = Cohort 3: 50 mg, APERIOD 1, EXDOSE 50.0, N 8, Median
[15] = Cohort 3: 50 mg, APERIOD 1, EXDOSE 50.0, N 8, Min

AUCinf [1, 3]: 3020 ng·h/mL
AUClast [1, 3]: 2930 ng·h/mL
CL/F [1, 3]: 49.7 L/h
Cmax [1, 3]: 686 ng/mL
Half-life [1, 3]: 24.7 h
AUCinf [1, 4]: 5880 ng·h/mL
AUClast [1, 4]: 5720 ng·h/mL
CL/F [1, 4]: 82.0 L/h
Cmax [1, 4]: 1200 ng/mL
Half-life [1, 4]: 34.7 h
Tmax [1, 4]: 1.52 h
AUCinf [1, 5]: 3100 ng·h/mL
AUClast [1, 5]: 3040 ng·h/mL
CL/F [1, 5]: 48.4 L/h
Tmax [1, 5]: 1.50 h
AUCinf [1, 6]: 1830 ng·h/mL
AUClast [1, 6]: 1790 ng·h/mL
CL/F [1, 6]: 25.5 L/h
Cmax [1, 6]: 456 ng/mL
Half-life [1, 6]: 13.3 h
Tmax [1, 6]: 0.500 h
CL/F ([1]; Cohort 1: 150 mg, 3 × 50 mg, APERIOD 1, EXDOSE 150, N 10, Geometric Mean): 49.2 L/h
AUCinf [1, 7]: 4870 ng·h/mL
AUClast [1, 7]: 4660 ng·h/mL
CL/F [1, 7]: 69.5 L/h
Cmax [1, 7]: 1120 ng/mL
Half-life [1, 7]: 32.0 h
Tmax [1, 7]: 2.00 h
CL/F ([1]; Cohort 1: 150 mg, 3 × 50 mg, APERIOD 1, EXDOSE 150, N 10, Median): 57.0 L/h
AUCinf [1, 8]: 2160 ng·h/mL
AUClast [1, 8]: 2080 ng·h/mL
CL/F [1, 8]: 30.8 L/h
Cmax [1, 8]: 547 ng/mL
Half-life [1, 8]: 18.1 h
AUCinf [1, 9]: 1780 ng·h/mL
AUClast [1, 9]: 1720 ng·h/mL
CL/F [1, 9]: 56.1 L/h
Cmax [1, 9]: 435 ng/mL
Half-life [1, 9]: 25.2 h
Tmax [1, 9]: 1.19 h
AUCinf [1, 10]: 3940 ng·h/mL
AUClast [1, 10]: 3710 ng·h/mL
CL/F [1, 10]: 124 L/h
Cmax [1, 10]: 654 ng/mL
Half-life [1, 10]: 34.6 h
Tmax [1, 10]: 2.00 h
CL/F [1, 11]: 58.4 L/h
Half-life [1, 11]: 24.4 h
AUCinf [1, 12]: 805 ng·h/mL
AUClast [1, 12]: 777 ng·h/mL
CL/F [1, 12]: 25.4 L/h
Cmax [1, 12]: 259 ng/mL
Half-life [1, 12]: 19.7 h
Tmax [1, 12]: 0.500 h
CL/F ([1]; Cohort 3: 50 mg, APERIOD 1, EXDOSE 50.0, N 8, Geometric Mean): 87.6 L/h
AUCinf [1, 13]: 2140 ng·h/mL
AUClast [1, 13]: 2120 ng·h/mL
CL/F [1, 13]: 660 L/h
Cmax [1, 13]: 507 ng/mL
Half-life [1, 13]: 32.8 h
Tmax [1, 13]: 1.52 h
CL/F [1, 14]: 74.9 L/h
Half-life [1, 14]: 23.3 h
AUCinf [1, 15]: 75.7 ng·h/mL
AUClast [1, 15]: 71.6 ng·h/mL
CL/F [1, 15]: 23.4 L/h
Cmax [1, 15]: 49.6 ng/mL
Half-life [1, 15]: 4.24 h
Tmax [1, 15]: 0.500 h
SMILES: CCC[C@H](N[C@H]1CCc2cc(F)cc(F)c2C1)C(=O)Nc1cn(C(C)(C)CNCC(C)(C)C)cn1 [nirogacestat dihydrobromide, (S)-2-(((S)-6,8-difluoro-1,2,3,4-tetrahydronaphthalen-2-yl)amino)-N-(1-(2-methyl-1-(neopentylamino)propan-2-yl)-1H-imidazol-4-yl)pentanamide]

SMILES: CCC[C@H](N[C@H]1CCc2cc(F)cc(F)c2C1)C(=O)Nc1cn(C(C)(C)CNCC(C)(C)C)cn1 [nirogacestat, (S)-2-(((S)-6,8-difluoro-1,2,3,4-tetrahydronaphthalen-2-yl)amino)-N-(1-(2-methyl-1-(neopentylamino)propan-2-yl)-1H-imidazol-4-yl)pentanamide]
participants progressing while on therapy [2]: no participants progressing while on therapy
response rate [2]: 29%
tumor shrinkage as measured by magnetic resonance imaging (MRI) [2]: significant tumor shrinkage

Reference: patent publication US20240316007A1, “COMPOSITIONS AND TREATMENTS WITH NIROGACESTAT” (SpringWorks Therapeutics, Inc., priority 0001, published 2024)
